Experimental data reported in ChEMBL document CHEMBL5370539, “Oxazole-4-carboxamide/butylated hydroxytoluene hybrids with GSK-3β inhibitory and neuroprotective activities against Alzheimer's disease” (Eur J Med Chem, 2023).
The source made the active and inactive calls. The calls are words filed in the database; no cut-off is given here.

Key:
[1] = molecular target: Glycogen synthase kinase-3 beta (Homo sapiens, UniProt P49841); test: Inhibition of human GSK-3beta overexpressed in human HEK293T cells assessed as decrease in Tau phosphorylation at t205 at 0.625 to 10 uM incubated for 24 hrs by Western blot analysis; type: cell-based; settings: dose 0.625-10 µM
PC-12 [2] = test: Neuroprotective activity against rat PC12 cells assessed as decrease in H2O2-induced mitochondrial membrane potential level at 10 uM preincubated for 12 hrs followed by replacement with fresh media and H2O2 stimulation for 12 hrs by JC-1 dye based flow cytometry (Rvb=95.3%); type: functional; design: scale not given: the % may be the effect or the level left
PC-12 [3] = test: Neuroprotective activity against rat PC12 cells assessed as decrease in H2O2-induced intracellular Ca2+ level at 5 uM preincubated for 12 hrs followed by replacement with fresh media and H2O2 stimulation for 12 hrs by Fluo-3 AM based flow cytometry relative to control; type: functional; design: scale not given: the % may be the effect or the level left
PC-12 [4] = test: Anti-apoptotic activity against H2O2-induced apoptosis in rat PC12 cells assessed as dead cells at 2.5 uM preincubated for 12 hrs followed by replacement with fresh media and H2O2 stimulation for 12 hrs by Annexin-V/7-AAD staining based flow cytometry (Rvb=4.1%); type: functional
PC-12 [5] = test: Anti-apoptotic activity against H2O2-induced apoptosis in rat PC12 cells assessed as late apoptotic cells at 2.5 uM preincubated for 12 hrs followed by replacement with fresh media and H2O2 stimulation for 12 hrs by Annexin-V/7-AAD staining based flow cytometry (Rvb=2.2 %); type: functional
PC-12 [6] = test: Anti-apoptotic activity against H2O2-induced apoptosis in rat PC12 cells assessed as early apoptotic cells at 2.5 uM preincubated for 12 hrs followed by replacement with fresh media and H2O2 stimulation for 12 hrs by Annexin-V/7-AAD staining based flow cytometry (Rvb=0.8%); type: functional
PC-12 [7] = test: Anti-apoptotic activity against H2O2-induced apoptosis in rat PC12 cells assessed as early apoptotic cells at 5 uM preincubated for 12 hrs followed by replacement with fresh media and H2O2 stimulation for 12 hrs by Annexin-V/7-AAD staining based flow cytometry (Rvb=0.8%); type: functional
PC-12 [8] = test: Anti-apoptotic activity against H2O2-induced apoptosis in rat PC12 cells assessed as living cells at 2.5 uM preincubated for 12 hrs followed by replacement with fresh media and H2O2 stimulation for 12 hrs by Annexin-V/7-AAD staining based flow cytometry (Rvb=92.9%); type: functional
PC12 = test: Activation of Nrf2-ARE pathway in rat PC-12 cells assessed as increase in NQO1 expression level at 2.5 to 10 uM incubated for 12 hrs by Western blot analysis; type: cell-based; settings: filed as activator, dose 2.5-10 µM
[9] = Toxicity in okadaic acid-induced cognitive impairment ICR mouse model assessed as body weight change at 0.08 to 0.24 mg/kg, iv twice at 3days interval before and after okadaic acid stimulation measured upto 14 days; type: organism-based; settings: in vivo, 336 h, dose 0.08-0.24 mg/kg, time < 14 day
Mus musculus [10] = test: Antialzheimer activity in okadaic acid-induced cognitive impairment ICR mouse model assessed as reduction in escape time at 0.08 to 0.24 mg/kg, iv twice at 3days interval before and after okadaic acid stimulation measured upto 14 days by Morris water maze test relative to control; type: functional, organism-based; settings: dose 0.08-0.24 mg/kg, time <= 14.0 day
Mus musculus [11] = test: Antialzheimer activity in okadaic acid-induced cognitive impairment ICR mouse model assessed as increase of search time in target quadrant at 0.08 to 0.24 mg/kg, iv twice at 3days interval before and after okadaic acid stimulation measured upto 14 days by Morris water maze test relative to control; type: functional, organism-based; settings: dose 0.08-0.24 mg/kg, time <= 14.0 day

Glycogen synthase kinase-3 beta, sequence (P49841 whole entry, looked up): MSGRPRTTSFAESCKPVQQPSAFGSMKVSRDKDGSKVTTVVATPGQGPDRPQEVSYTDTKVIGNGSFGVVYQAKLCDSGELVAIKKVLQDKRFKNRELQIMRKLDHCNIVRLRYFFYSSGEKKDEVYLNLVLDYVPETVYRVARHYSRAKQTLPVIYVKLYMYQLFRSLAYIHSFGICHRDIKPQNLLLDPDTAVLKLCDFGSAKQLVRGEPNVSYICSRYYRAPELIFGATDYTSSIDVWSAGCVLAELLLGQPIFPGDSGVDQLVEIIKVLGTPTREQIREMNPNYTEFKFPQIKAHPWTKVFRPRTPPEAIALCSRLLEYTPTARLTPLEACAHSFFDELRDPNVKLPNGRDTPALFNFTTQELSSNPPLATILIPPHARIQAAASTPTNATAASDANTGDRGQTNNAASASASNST

For `COc1ccc(-c2ocnc2C(=O)NCCCc2ccc(NC(=O)/C=C/c3cc(C(C)(C)C)c(O)c(C(C)(C)C)c3)cc2)cc1Cl`, the inhibition [1] was “Dose-Dependent Effect”, the Activity (PC-12 [2]) was 81.3% and the Activity (PC-12 [3]) was 28.4%. The Activity (PC-12 [4]) was 1.3%, the Activity (PC-12 [5]) was 16.4% and the Activity (PC-12 [6]) was 5.5%. The Activity (PC-12 [7]) was 1.5%, the Activity (PC-12 [8]) was 76.8% and the Activity (PC12) was “Dose-Dependent Effect”. The Activity [9] was “Non-Toxic”, the Activity (Mus musculus [10]) was “Dose-Dependent Effect” and the Activity (Mus musculus [11]) was “Active”.
